Measured values from PubChem BioAssay AID330 (DTP/NCI, 2004).
Where “and” joins values, the source holds several entries; their conditions need not be identical. Equal values may be shown once. Toxic doses and inconclusive results are not listed.

System: P388 leukemia ip, CD2F1 mice, survival T/C
Assay: NCI In Vivo Anticancer Drug Screen. Data for tumor model P388 Leukemia (intraperitoneal) in CD2F1 (CDF1) mice
Settings: endpoint: median survival time, higher = longer survival
In short: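 Mice carrying the transplanted tumor received test compound or vehicle. Survival was recorded in each group, and the value is the treated-group measurement divided by that of the vehicle-treated control group.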

[1] = dose: 25.0 mg/kg/injection, schedule: Q01DX009 (ip), vehicle: saline with Tween-80
[2] = dose: 50.0 mg/kg/injection, schedule: Q01DX009 (ip), vehicle: saline with Tween-80
[3] = dose: 100.0 mg/kg/injection, schedule: Q01DX009 (ip), vehicle: saline with Tween-80
[4] = dose: 200.0 mg/kg/injection, schedule: Q01DX009 (ip), vehicle: saline with Tween-80
[5] = dose: 60.0 mg/kg/injection, schedule: Q01DX005 (ip), vehicle: saline with Tween-80
[6] = dose: 120.0 mg/kg/injection, schedule: Q01DX005 (ip), vehicle: saline with Tween-80
[7] = dose: 60.0 mg/kg/injection, schedule: Q01DX005 (ip), vehicle: Klucel (hydroxypropylcellulose) (HPC)
[8] = dose: 120.0 mg/kg/injection, schedule: Q01DX005 (ip), vehicle: Klucel (hydroxypropylcellulose) (HPC)
[9] = dose: 240.0 mg/kg/injection, schedule: Q01DX005 (ip), vehicle: Klucel (hydroxypropylcellulose) (HPC)
[10] = dose: 240.0 mg/kg/injection, schedule: Q01DX005 (ip), vehicle: saline with Tween-80
[11] = dose: 7.5 mg/kg/injection, schedule: Q01DX005 (ip), vehicle: Klucel (hydroxypropylcellulose) (HPC)
[12] = dose: 15.0 mg/kg/injection, schedule: Q01DX005 (ip), vehicle: Klucel (hydroxypropylcellulose) (HPC)
[13] = dose: 30.0 mg/kg/injection, schedule: Q01DX005 (ip), vehicle: Klucel (hydroxypropylcellulose) (HPC)
[14] = dose: 50.0 mg/kg/injection, schedule: Q01DX005 (ip), vehicle: saline
[15] = dose: 50.0 mg/kg/injection, schedule: Q01DX009 (ip), vehicle: saline
[16] = dose: 100.0 mg/kg/injection, schedule: Q01DX009 (ip), vehicle: saline
[17] = dose: 200.0 mg/kg/injection, schedule: Q01DX009 (ip), vehicle: saline
[18] = dose: 12.5 mg/kg/injection, schedule: Q01DX009 (ip), vehicle: Klucel (hydroxypropylcellulose) (HPC)
[19] = dose: 25.0 mg/kg/injection, schedule: Q01DX009 (ip), vehicle: Klucel (hydroxypropylcellulose) (HPC)
[20] = dose: 50.0 mg/kg/injection, schedule: Q01DX009 (ip), vehicle: Klucel (hydroxypropylcellulose) (HPC)
[21] = dose: 100.0 mg/kg/injection, schedule: Q01DX005 (ip), vehicle: saline
[22] = dose: 200.0 mg/kg/injection, schedule: Q01DX005 (ip), vehicle: saline
[23] = dose: 50.0 mg/kg/injection, schedule: Q01DX005 (ip), vehicle: Klucel (hydroxypropylcellulose) (HPC)
[24] = dose: 100.0 mg/kg/injection, schedule: Q01DX005 (ip), vehicle: Klucel (hydroxypropylcellulose) (HPC)
[25] = dose: 200.0 mg/kg/injection, schedule: Q01DX005 (ip), vehicle: Klucel (hydroxypropylcellulose) (HPC)
[26] = dose: 6.25 mg/kg/injection, schedule: Q01DX009 (ip), vehicle: Klucel (hydroxypropylcellulose) (HPC)

In the case of `CCN1C(=O)Nc2ccc(Cl)cc2C1(O)c1ccccc1` (configuration not stated), the T/C [1] is reported as 95 % of control, the T/C [2] is reported as 102 % of control and the T/C [3] is reported as 99 % of control.
For `CCCCCCC(/C=C/c1ccc(Cl)c(Cl)c1)=N\Nc1ccc(Cl)cc1Cl`, the T/C (dose: 12.5 mg/kg/injection, schedule: Q01DX009 (ip), vehicle: saline with Tween-80) was 94 % of control, the T/C [1] was 94 % of control and the T/C [3] was 88 % of control. For the same compound, the T/C [4] was 87 % of control.
With `COc1cc(C(CC(C)=O)c2cc3c(cc2OC(C)=O)OCO3)cc(OC)c1OC` (configuration not stated) the T/C (dose: 30.0 mg/kg/injection, schedule: Q01DX005 (ip), vehicle: saline with Tween-80) was 95 % of control, the T/C [5] was 100 % of control and 93 % of control and the T/C [6] was 120 % of control.
`Nc1nc(SCC(=O)O)[nH]c(=O)c1NS(=O)(=O)c1cccc([N+](=O)[O-])c1` was tested, and the T/C [7] was 96 % of control, the T/C [8] was 93 % of control and the T/C [9] was 93 % of control.
For `Cc1ccc(N(CN2C(=O)CCC2=O)CS(=O)(=O)c2ccc(C)cc2)cc1`, the T/C [7] was 97 % of control, the T/C [8] was 98 % of control and 93 % of control and the T/C [9] was 93 % of control and 96 % of control.
With `COC(=O)c1[nH]c(=O)c(C#N)c(C(=O)OC)c1C(=O)c1ccccc1` the T/C [5] was 99 % of control, the T/C [6] was 99 % of control and the T/C [10] was 92 % of control.
In the case of `CC1=C(C(=O)Nc2ccc(Cl)c(C(=O)OC(C)C)c2)SCCO1`, the T/C (dose: 100.0 mg/kg/injection, schedule: Q01DX001 (ip), vehicle: saline with Tween-80) is reported as 96 % of control, the T/C (dose: 200.0 mg/kg/injection, schedule: Q01DX001 (ip), vehicle: saline with Tween-80) is reported as 92 % of control and the T/C (dose: 400.0 mg/kg/injection, schedule: Q01DX001 (ip), vehicle: saline with Tween-80) is reported as 87 % of control.
For `CC1SC(=S)N(c2ccccc2)C1=O` (configuration not stated), the T/C [2] was 104 % of control, the T/C (dose: 50.0 mg/kg/injection, schedule: Q04DX003 (ip), vehicle: saline with Tween-80) was 112 % of control and the T/C [3] was 100 % of control. The T/C (dose: 100.0 mg/kg/injection, schedule: Q04DX003 (ip), vehicle: saline with Tween-80) was 108 % of control, the T/C [4] was 109 % of control and the T/C (dose: 200.0 mg/kg/injection, schedule: Q04DX003 (ip), vehicle: saline with Tween-80) was 108 % of control.
For `CONC(=O)N/N=C\c1c(CO)cnc(C)c1O`, the T/C [11] was 105 % of control, the T/C [12] was 102 % of control and the T/C [13] was 102 % of control.
In the case of `COCCOC(C)C(/C=N/N=C(N)N)=N/N=C(N)N` (configuration not stated), the T/C (dose: 12.5 mg/kg/injection, schedule: Q01DX005 (ip), vehicle: saline) is reported as 101 % of control, the T/C (dose: 25.0 mg/kg/injection, schedule: Q01DX005 (ip), vehicle: saline) is reported as 103 % of control and the T/C [14] is reported as 99 % of control and 101 % of control.
For `Cc1cccc(N2CC3CC4C=CC3(C2)O4)c1` (configuration not stated), the T/C [7] was 96 % of control, the T/C [8] was 96 % of control and the T/C [9] was 96 % of control.
In the case of `CN(C)/N=C(\N)c1nnn(C)n1`, the T/C (dose: 50.0 mg/kg/injection, schedule: Q01DX001 (ip), vehicle: Klucel (hydroxypropylcellulose) (HPC)) is reported as 106 % of control, the T/C (dose: 100.0 mg/kg/injection, schedule: Q01DX001 (ip), vehicle: Klucel (hydroxypropylcellulose) (HPC)) is reported as 101 % of control and the T/C (dose: 200.0 mg/kg/injection, schedule: Q01DX001 (ip), vehicle: Klucel (hydroxypropylcellulose) (HPC)) is reported as 100 % of control.
`CC1(O)C=CP(C)(=O)C1` (configuration not stated) was tested, and the T/C (dose: 12.5 mg/kg/injection, schedule: Q01DX009 (ip), vehicle: saline) was 108 % of control, the T/C (dose: 25.0 mg/kg/injection, schedule: Q01DX009 (ip), vehicle: saline) was 110 % of control and the T/C [15] was 111 % of control. The T/C [16] was 100 % of control and the T/C [17] was 86 % of control.
With `O=S(=O)([O-])NC1CCCCC1.O=S(=O)([O-])NC1CCCCC1.[Hg+2].[Hg+2].[Hg+2].[O-2].[O-2]` the T/C (dose: 0.5 mg/kg/injection, schedule: Q04DX003 (ip), vehicle: saline) was 96 % of control, the T/C (dose: 1.0 mg/kg/injection, schedule: Q04DX003 (ip), vehicle: saline) was 100 % of control and the T/C (dose: 2.0 mg/kg/injection, schedule: Q04DX003 (ip), vehicle: saline) was 100 % of control.
With `O=c1[nH]c2cc(Cl)ccc2nc1/C=C(\O)c1cccc2ccccc12` the T/C [5] was 89 % of control, the T/C [6] was 88 % of control and the T/C [10] was 90 % of control.
`C/C(N)=C\C(=S)Nc1ccccc1` was tested, and the T/C [18] was 100 % of control, the T/C [19] was 106 % of control and the T/C [20] was 104 % of control.
With `CN(C)C[C@@H]1OCCOCCO[C@@H](CN(C)C)[C@H](CN(C)C)OCCOCCO[C@H]1CN(C)C` the T/C [14] was 98 % of control, the T/C [21] was 88 % of control and the T/C [22] was 90 % of control.
With `c1ccc2c(c1)c1c(c3ccccc32)CN2CCCC2C1` (configuration not stated) the T/C [23] was 105 % of control, the T/C [24] was 101 % of control and the T/C [25] was 110 % of control.
`CCCCCCCCCCCC(C)NCc1ccccc1` (configuration not stated) was tested, and the T/C [26] was 103 % of control, the T/C [18] was 112 % of control and the T/C [19] was 99 % of control. The T/C [20] was 105 % of control.
For `CSC(SC)(C(=O)O)c1cc(C)no1`, the T/C [5] was 107 % of control, the T/C [6] was 102 % of control and the T/C [10] was 102 % of control.
For `C[CH2][Ge]([CH2]C)[CH2]C.C[CH2][Ge]([CH2]C)[CH2]C.C[CH2][Ge]([CH2]C)[S][Ge]([CH2]C)[CH2]C`, the T/C [5] was 96 % of control, the T/C [6] was 100 % of control and the T/C [10] was 99 % of control.
With `COCC(=O)c1ccc(Cl)cc1` the T/C [15] was 105 % of control, the T/C [16] was 110 % of control and 96 % of control and the T/C [17] was 105 % of control and 107 % of control.
In the case of `CN(C)c1ccc(/C=C(\C#N)C(N)=S)cc1`, the T/C [15] is reported as 100 % of control, the T/C [16] is reported as 100 % of control and the T/C [17] is reported as 106 % of control.
`Cn1c([N+](=O)[O-])cnc1CSc1ccc(C#N)cc1` was tested, and the T/C (dose: 25.0 mg/kg/injection, schedule: Q01DX005 (ip), vehicle: Klucel (hydroxypropylcellulose) (HPC)) was 105 % of control, the T/C [23] was 104 % of control and the T/C [24] was 92 % of control. For the same compound, the T/C [25] was 114 % of control.
`CC1=NC2=NC(CCCC(=O)OCc3ccc(Cl)c(Cl)c3)=NC3=CC=CC(=N1)N32` was tested, and the T/C [1] was 101 % of control, the T/C [2] was 111 % of control and the T/C [3] was 95 % of control.
`CCc1c(O)c2c([nH]c1=O)SC(C)(C)CC2=NCC(C)C` was tested, and the T/C [14] was 93 % of control, the T/C [21] was 96 % of control and the T/C [22] was 94 % of control.
With `CS(C)=C1C(=O)C(=O)C(=S(C)C)C(=O)C1=O` the T/C [5] was 107 % of control, the T/C [6] was 104 % of control and the T/C [10] was 100 % of control.
For `CC1(C)Cc2oc(=Nc3ccccc3)n(-c3ccccc3)c(=O)c2C1`, the T/C [20] was 105 % of control, the T/C (dose: 100.0 mg/kg/injection, schedule: Q01DX009 (ip), vehicle: Klucel (hydroxypropylcellulose) (HPC)) was 114 % of control and the T/C (dose: 200.0 mg/kg/injection, schedule: Q01DX009 (ip), vehicle: Klucel (hydroxypropylcellulose) (HPC)) was 102 % of control.
With `COc1c(C=O)c2c(c(OC)c1OC)-c1ccc(OC)c(=O)cc1[C@@H](NC(C)=O)CC2` the T/C (dose: 0.39 mg/kg/injection, schedule: Q01DX009 (ip), vehicle: Klucel (hydroxypropylcellulose) (HPC)) was 151 % of control, the T/C (dose: 0.78 mg/kg/injection, schedule: Q01DX009 (ip), vehicle: Klucel (hydroxypropylcellulose) (HPC)) was 154 % of control and the T/C (dose: 1.56 mg/kg/injection, schedule: Q01DX009 (ip), vehicle: Klucel (hydroxypropylcellulose) (HPC)) was 160 % of control and 175 % of control. For the same compound, the T/C (dose: 3.12 mg/kg/injection, schedule: Q01DX009 (ip), vehicle: Klucel (hydroxypropylcellulose) (HPC)) was 180 % of control and 194 % of control, the T/C [26] was 205 % of control and the T/C [18] was 102 % of control.
In the case of `CN(C)c1ccc2ncc(C(N)=O)c(N)c2c1`, the T/C [11] is reported as 91 % of control, the T/C [12] is reported as 99 % of control and the T/C [13] is reported as 97 % of control.
`CCOc1ccc(C(C)c2cc3c(cc2O)OCO3)cc1` (configuration not stated) was tested, and the T/C [5] was 105 % of control, the T/C [6] was 104 % of control and the T/C [10] was 109 % of control.
In the case of `CCC(=O)N(C)[C@@H]1Oc2ccc(O)cc2[C@]1(C)c1cc(O)ccc1O`, the T/C [7] is reported as 98 % of control, the T/C [8] is reported as 97 % of control and the T/C [9] is reported as 99 % of control.
